Measurements: publication PMC4379058, “The Biochemical Properties of the Arabidopsis Ecto-Nucleoside Triphosphate Diphosphohydrolase AtAPY1 Contradict a Direct Role in Purinergic Signaling” (PLoS ONE, 2015)

Tests used:
Experiment in all cases: discontinuous molybdate phosphate release assay
AtAPY1 [1] = target: T1, AtAPY1 (Arabidopsis thaliana, UniProt Q9SQG2); type: biochemical; design: gene APY1; full-length with TM, C-terminal linker and His6 tag, HEK293 cells; Ni-NTA elution fraction, not enriched; 52 kDa theoretical
T1 sequence (Q9SQG2 1-471): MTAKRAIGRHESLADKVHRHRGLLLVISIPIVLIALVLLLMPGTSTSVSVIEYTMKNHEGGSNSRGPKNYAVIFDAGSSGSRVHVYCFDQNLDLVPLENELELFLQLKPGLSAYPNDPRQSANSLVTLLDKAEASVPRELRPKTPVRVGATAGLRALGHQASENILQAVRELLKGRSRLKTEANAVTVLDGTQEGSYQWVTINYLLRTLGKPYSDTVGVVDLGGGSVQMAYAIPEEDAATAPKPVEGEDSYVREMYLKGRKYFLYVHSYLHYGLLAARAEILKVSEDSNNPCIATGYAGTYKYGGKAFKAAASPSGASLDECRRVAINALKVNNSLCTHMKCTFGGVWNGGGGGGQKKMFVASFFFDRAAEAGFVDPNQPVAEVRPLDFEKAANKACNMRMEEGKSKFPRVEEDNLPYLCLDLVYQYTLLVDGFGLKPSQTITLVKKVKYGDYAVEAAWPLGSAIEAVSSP

AtAPY1-δTM = target: T2, AtAPY1-δTM (Arabidopsis thaliana, UniProt Q9SQG2); type: biochemical
T2 construct: gene APY1; 45 kDa theoretical
T2 sequence (Q9SQG2 67-470): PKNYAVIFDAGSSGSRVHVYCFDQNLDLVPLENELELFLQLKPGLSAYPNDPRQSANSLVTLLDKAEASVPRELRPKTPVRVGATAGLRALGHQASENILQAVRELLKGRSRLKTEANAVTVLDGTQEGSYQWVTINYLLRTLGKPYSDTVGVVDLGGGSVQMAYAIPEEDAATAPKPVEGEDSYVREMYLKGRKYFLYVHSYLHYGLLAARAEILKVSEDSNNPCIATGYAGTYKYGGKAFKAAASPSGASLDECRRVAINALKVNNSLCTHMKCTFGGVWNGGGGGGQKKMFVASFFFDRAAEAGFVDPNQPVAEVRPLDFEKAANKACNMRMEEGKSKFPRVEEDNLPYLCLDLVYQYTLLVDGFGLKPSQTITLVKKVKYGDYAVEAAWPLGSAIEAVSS

AtAPY1 [2] = target: T1, AtAPY1; design: gene APY1; settings: 3 mM UDP substrate, 1 mM MgCl2, pH 6.5, 30°C
AtAPY1-GFP = target: T3, AtAPY1-GFP (Arabidopsis thaliana, UniProt Q9SQG2); type: biochemical; settings: 3 mM UDP substrate, 2 mM MgCl2, pH 6.5, 30°C; immobilised enzyme
T3 construct: gene APY1; full-length, C-terminal GFP fusion (GFP from residue 472; 80 kDa), 35S transgenic Arabidopsis seedlings, immobilised on anti-GFP plate
T3 sequence (Q9SQG2 1-471): T1 sequence (Q9SQG2 1-471)

O=c1ccn([C@@H]2O[C@H](COP(=O)(O)OP(=O)(O)O)[C@@H](O)[C@H]2O)c(=O)[nH]1 [UDP]
discontinuous molybdate phosphate release assay (AtAPY1 [1]): only GDP, IDP and UDP were hydrolyzed by AtAPY1 | discontinuous molybdate phosphate release assay (AtAPY1-δTM): AtAPY1 with or without TM is limited to the nucleotides GDP, IDP and UDP

Nc1nc2c(ncn2[C@@H]2O[C@H](COP(=O)(O)OP(=O)(O)O)[C@@H](O)[C@H]2O)c(=O)[nH]1 [GDP]
discontinuous molybdate phosphate release assay (AtAPY1 [1]): only GDP, IDP and UDP were hydrolyzed by AtAPY1 | discontinuous molybdate phosphate release assay (AtAPY1-δTM): AtAPY1 with or without TM is limited to the nucleotides GDP, IDP and UDP

[O]=[V]([OH])([OH])[OH] [vanadate]
% inhibition at 1 mM (AtAPY1 [2]): 54% | % inhibition (AtAPY1-GFP): The same inhibition pattern was found for AtAPY1-GFP
